# Results: patent US20040146872A1, “Fat regulated genes, uses thereof and compounds for modulating same” (priority 2003, published 2004)
# Legend:
# Type in all cases: in vivo
# METP = assay: Northern blot quantification of METP mRNA in liver of rats fed PUFA-supplemented fat free diet; conditions: rat liver RNA; female Wistar rats, fat free diet 2 weeks, then fatty acid 5% (w/w) in diet 2 weeks; ± standard deviation of three rats; normalized for 18S; EPA = 100, fat free = 10 ± 5
# Excerpt: (§1) The present inventors have identified genes that were modulated or regulated by dietary fat using a differential display technique (Liang P. and Pardee A. B., 1992, Science, 257: 967-971). Groups of female Wistar rats were fed fat free diet for two weeks. After two weeks all groups but one (controls) were supplemented with highly purified PUFAs for an additional two weeks. The rats were sacrificed and tissues were removed to obtain RNA for differential display and Northern blotting. Differential display identified genes regulated by dietary fat by comparing mRNA populations from rat liver. For the study, the rats were divided into six groups and fed fat free diet for 14 days. Each group was fed fat free diet for an additional two weeks with the following supplements: group 1-no supplement (fat free control); group 2-linoleic acid (LA, 18:2n-6); group 3-gamma-linolenic acid (GLA, 18:3n-6); group 4-alpha-linolenic acid (ALA, 18:3n-3); group 5-eicosapentaenoic acid (EPA, 20:5n-3) and group 6-docosahexaenoic acid (DHA, 22:6n-3). Fatty acids were administered in the diet at a fatty acid-specific concentration of 5% (w/w), as described in Example 1. The rats were fed ad libitum. […] The rats were randomly divided into 6 groups and fed fat free diet (Teklad #94013). After 2 weeks, groups 2-6 were fed diets supplemented with highly purified polyunsaturated fatty acids for an additional 2 weeks. The concentration of the specific fatty acid used for each group was 5% (w/w) of the total diet preparation. The experimental design is provided below. Diets were prepared by mixing the oils into the fat free diet. The mixed diet was stored at -20° C. under a nitrogen atmosphere to prevent fatty acid oxidation. Dietary feedings were provided at the same time each day. Diet preparations are shown below. Rats ([…]) were sacrificed via cardiac puncture under anesthesia. The livers were perfused with saline, excised and frozen in liquid nitrogen in preparation for RNA extraction. Total RNA from 0.4 g of each liver was isolated as per manufacturer's protocol using Trizol Reagent (Gibco BRL). In order to remove contaminating genomic DNA, the RNA sample was incubated with RQ1 RNase-free DNase (Promega) for 30 minutes at 37° C. The RNA was subsequently precipitated and resuspended to a final concentration of 0.5 mg/ml. To confirm the expression pattern of the genes as discovered in the differential display experiment and to determine the transcript size of these genes, Northern blot analysis was performed. […] The transfer of the RNA onto the membrane was verified by methylene blue staining. […] The Northern blot was performed following the protocol in Ausubel et al., 1994-, Current Protocols in Molecular Biology, John Wiley & Sons, NY. […]
# [1] = test system: delta-3, delta-2-enoyl-CoA isomerase; assay: Northern blot quantification of delta-3, delta-2-enoyl-CoA isomerase mRNA in liver of rats fed PUFA-supplemented fat free diet; conditions: rat liver RNA; female Wistar rats, fat free diet 2 weeks, then fatty acid 5% (w/w) in diet 2 weeks; ± standard deviation of three rats; normalized for 18S; EPA = 100, fat free = 14 ± 18
# Excerpt: as §1
# FAS = assay: Northern blot quantification of FAS mRNA in liver of rats fed PUFA-supplemented fat free diet; conditions: rat liver RNA; female Wistar rats, fat free diet 2 weeks, then fatty acid 5% (w/w) in diet 2 weeks; ± standard deviation of three rats; normalized for 18S; fat free = 100
# Excerpt: as §1
# A1BG = assay: Northern blot quantification of A1BG mRNA in liver of rats fed PUFA-supplemented fat free diet; conditions: rat liver RNA; female Wistar rats, fat free diet 2 weeks, then fatty acid 5% (w/w) in diet 2 weeks; ± standard deviation of three rats; not normalized for 18S; DHA = 100, fat free = 7 ± 9
# Excerpt: as §1
# SCD2 = assay: Northern blot quantification of SCD2 mRNA in liver of rats fed PUFA-supplemented fat free diet; conditions: rat liver RNA; female Wistar rats, fat free diet 2 weeks, then fatty acid 5% (w/w) in diet 2 weeks; ± standard deviation of three rats; normalized for 18S; fat free = 100
# Excerpt: as §1
# INSIG1 = assay: Northern blot quantification of INSIG1 mRNA in liver of rats fed PUFA-supplemented fat free diet; conditions: rat liver RNA; female Wistar rats, fat free diet 2 weeks, then fatty acid 5% (w/w) in diet 2 weeks; ± standard deviation of three rats; normalized for 18S; fat free = 100
# Excerpt: as §1
# ApoA-1 = assay: Northern blot quantification of ApoA-1 mRNA in liver of rats fed PUFA-supplemented fat free diet; conditions: rat liver RNA; female Wistar rats, fat free diet 2 weeks, then fatty acid 5% (w/w) in diet 2 weeks; ± standard deviation of three rats; normalized for 18S; fat free = 100
# Excerpt: as §1
# GLOL = assay: Northern blot quantification of GLOL mRNA in liver of rats fed PUFA-supplemented fat free diet; conditions: rat liver RNA; female Wistar rats, fat free diet 2 weeks, then fatty acid 5% (w/w) in diet 2 weeks; ± standard deviation of three rats; normalized for 18S; fat free = 100
# Excerpt: as §1
# FTF1 = assay: Northern blot quantification of FTF1 mRNA in liver of rats fed PUFA-supplemented fat free diet; conditions: rat liver RNA; female Wistar rats, fat free diet 2 weeks, then fatty acid 5% (w/w) in diet 2 weeks; ± standard deviation of three rats; not normalized for 18S; fat free = 100
# Excerpt: as §1
# G6PD = assay: Northern blot quantification of G6PD mRNA in liver of rats fed PUFA-supplemented fat free diet; conditions: rat liver RNA; female Wistar rats, fat free diet 2 weeks, then fatty acid 5% (w/w) in diet 2 weeks; ± standard deviation of three rats; not normalized for 18S; fat free = 100
# Excerpt: as §1
# COMT = assay: Northern blot quantification of COMT mRNA in liver of rats fed PUFA-supplemented fat free diet; conditions: rat liver RNA; female Wistar rats, fat free diet 2 weeks, then fatty acid 5% (w/w) in diet 2 weeks; ± standard deviation of three rats; normalized for 18S; fat free = 100
# Excerpt: as §1
# Spot-14 = assay: Northern blot quantification of Spot-14 mRNA in liver of rats fed PUFA-supplemented fat free diet; conditions: rat liver RNA; female Wistar rats, fat free diet 2 weeks, then fatty acid 5% (w/w) in diet 2 weeks; ± standard deviation of three rats; normalized for 18S; fat free = 100
# Excerpt: as §1
# GPAT = assay: Northern blot quantification of GPAT mRNA in liver of rats fed PUFA-supplemented fat free diet; conditions: rat liver RNA; female Wistar rats, fat free diet 2 weeks, then fatty acid 5% (w/w) in diet 2 weeks; ± standard deviation of three rats; normalized for 18S; fat free = 100
# Excerpt: as §1
# SCD1 = assay: Northern blot quantification of SCD1 mRNA in liver of rats fed PUFA-supplemented fat free diet; conditions: rat liver RNA; female Wistar rats, fat free diet 2 weeks, then fatty acid 5% (w/w) in diet 2 weeks; ± standard deviation of three rats; normalized for 18S; fat free = 100
# Excerpt: The present inventors have identified genes that were modulated or regulated by dietary fat using a differential display technique (Liang P. and Pardee A. B., 1992, Science, 257: 967-971). Groups of female Wistar rats were fed fat free diet for two weeks. After two weeks all groups but one (controls) were supplemented with highly purified PUFAs for an additional two weeks. The rats were sacrificed and tissues were removed to obtain RNA for differential display and Northern blotting. Differential display identified genes regulated by dietary fat by comparing mRNA populations from rat liver. For the study, the rats were divided into six groups and fed fat free diet for 14 days. Each group was fed fat free diet for an additional two weeks with the following supplements: group 1-no supplement (fat free control); group 2-linoleic acid (LA, 18:2n-6); group 3-gamma-linolenic acid (GLA, 18:3n-6); group 4-alpha-linolenic acid (ALA, 18:3n-3); group 5-eicosapentaenoic acid (EPA, 20:5n-3) and group 6-docosahexaenoic acid (DHA, 22:6n-3). Fatty acids were administered in the diet at a fatty acid-specific concentration of 5% (w/w), as described in Example 1. The rats were fed ad libitum. […] The rats were randomly divided into 6 groups and fed fat free diet (Teklad #94013). After 2 weeks, groups 2-6 were fed diets supplemented with highly purified polyunsaturated fatty acids for an additional 2 weeks. The concentration of the specific fatty acid used for each group was 5% (w/w) of the total diet preparation. The experimental design is provided below. Diets were prepared by mixing the oils into the fat free diet. The mixed diet was stored at -20° C. under a nitrogen atmosphere to prevent fatty acid oxidation. Dietary feedings were provided at the same time each day. Diet preparations are shown below. Rats ([…]) were sacrificed via cardiac puncture under anesthesia. The livers were perfused with saline, excised and frozen in liquid nitrogen in preparation for RNA extraction. Total RNA from 0.4 g of each liver was isolated as per manufacturer's protocol using Trizol Reagent (Gibco BRL). […]
# [2] = test system: mRNA populations from rat liver; assay: Differential display of mRNA populations from liver of rats fed PUFA-supplemented fat free diet; conditions: preliminary differential display studies
# Excerpt: The present inventors have identified genes that were modulated or regulated by dietary fat using a differential display technique (Liang P. and Pardee A. B., 1992, Science, 257: 967-971). Groups of female Wistar rats were fed fat free diet for two weeks. After two weeks all groups but one (controls) were supplemented with highly purified PUFAs for an additional two weeks. The rats were sacrificed and tissues were removed to obtain RNA for differential display and Northern blotting. Differential display identified genes regulated by dietary fat by comparing mRNA populations from rat liver. For the study, the rats were divided into six groups and fed fat free diet for 14 days. Each group was fed fat free diet for an additional two weeks with the following supplements: group 1—no supplement (fat free control); group 2—linoleic acid (LA, 18:2n-6); group 3—gamma-linolenic acid (GLA, 18:3n-6); group 4—alpha-linolenic acid (ALA, 18:3n-3); group 5—eicosapentaenoic acid (EPA, 20:5n-3) and group 6—docosahexaenoic acid (DHA, 22:6n-3). Fatty acids were administered in the diet at a fatty acid-specific concentration of 5% (w/w), as described in Example 1. The rats were fed ad libitum. The protocol used in the present differential display experiment is based on, and closely followed, the Clontech Delta Differential Display Kit (Clontech Catalog No. K1810-1). […]
Compound,"quantification of the Northern blots, METP (METP)","quantification of the Northern blots, delta-3, delta-2-enoyl-CoA isomerase [1]","quantification of the Northern blots, FAS (FAS)","quantification of the Northern blots, A1BG (A1BG)","quantification of the Northern blots, SCD2 (SCD2)","quantification of the Northern blots, INSIG1 (INSIG1)","quantification of the Northern blots, ApoA-1 (ApoA-1)","quantification of the Northern blots, GLOL (GLOL)","quantification of the Northern blots, FTF1 (FTF1)","quantification of the Northern blots, G6PD (G6PD)","quantification of the Northern blots, COMT (COMT)","quantification of the Northern blots, Spot-14 (Spot-14)","quantification of the Northern blots, GPAT (GPAT)","quantification of the Northern blots, SCD1 (SCD1)",differences in differential display versus fat free control [2]
"CC/C=C\C/C=C\C/C=C\C/C=C\C/C=C\CCCC(=O)O [EPA, eicosapentaenoic acid]",100 ± 16%,100 ± 35%,17 ± 14%,32 ± 30%,2 ± 1%,25 ± 3%,25 ± 4%,29 ± 15%,10 ± 7%,15 ± 14%,50 ± 4%,19 ± 25%,14 ± 10%,,
"CC/C=C\C/C=C\C/C=C\C/C=C\C/C=C\C/C=C\CCC(=O)O [DHA, docosahexaenoic acid]",80 ± 28%,87 ± 2%,27 ± 21%,100 ± 64%,4 ± 1%,13 ± 11%,12 ± 1%,36 ± 17%,13 ± 12%,19 ± 7%,49 ± 3%,24 ± 18%,26 ± 15%,1 ± 1%,
"CCCCC/C=C\C/C=C\C/C=C\CCCCC(=O)O [GLA, gamma-linolenic acid]",78 ± 12%,33 ± 15%,17 ± 12%,14 ± 10%,11 ± 6%,11 ± 2%,32 ± 8%,37 ± 11%,4 ± 8%,8 ± 9%,45 ± 23%,12 ± 7%,15 ± 13%,6 ± 8%,
"CCCCC/C=C\C/C=C\CCCCCCCC(=O)O [LA, linoleic acid]",37 ± 7%,29 ± 27%,47 ± 40%,52 ± 47%,63 ± 15%,49 ± 12%,90 ± 23%,64 ± 6%,56 ± 15%,42 ± 27%,59 ± 6%,50 ± 6%,52 ± 5%,63 ± 20%,no differences
